Reference: patent US20070167353A1, “PRODRUG COMPOSITION” (priority 2003, published 2007)

Tests used:
[1] = tested on: vaccinia virus; assay: microbe, parasite or virus in culture; type: cell-based; conditions: for IC50: HFF cells, 3 days, read-out: Vaccinia Plaque Reduction (IC50)
[2] = Intestinal absorption after direct duodenal injection in anesthetized rats, plasma by LC/MS/MS; conditions: for plasma Ara A levels after dosing (in words) / prodrug absorption / prodrug concentrations in systemic plasma (in words): rat, duodenal injection
Experimental: The systemic plasma profiles of the prodrug, Ara A, and its main metabolite, Ara H are then monitored by removing plasma from a jugular vein cannula over a 4 hour period and assaying by LC/MS/MS assay.
Animals were dosed with Ara A at a level of 1.5 mg/rat via direct duodenal injection into anesthetized rats (n=2 per compound). Plasma samples were taken from the jugular vein at 0, 1, 2, and 4 hours from the jugular vein and were assayed for Ara A (▪), and Ara H (♦) by LC/MS/MS.
Animals were dosed with 5′-O-L isoleucyl Ara A prodrug at a level of 2.7 mg/rat via direct duodenal injection into anesthetized rats (n=3 per compound). Plasma samples were taken from the jugular vein at 0, 0.5, 1, 2, and 4 hours from the jugular vein and were assayed for prodrug (□), Ara A (▪), and Ara H (♦) by LC/MS/MS.
(§1) FIG. 6 is a graph showing mean plasma profiles of Ara A, Ara H, and 5′-O-D Isoleucyl Ara A after administration of 5′-O-D Isoleucyl Ara A into the duodenum of a rat. Animals were dosed with 5′-O-D Isoleucyl Ara A prodrug at a level of 2.7 mg/rat via direct duodenal injection into anesthetized rats (n=2). Plasma samples were taken from the jugular vein at 0, 0.5, 1, 2, and 4 hours from the jugular vein and were assayed for prodrug (□), Ara A (▪), and Ara H (♦) by LC/MS/MS.
as §1, with “7” for “6”, “5′-O-L Valyl” for “5′-O-D Isoleucyl”, “3” for “2.7”
as §1, with “FIG. 8” for “FIG. 6”, “5′-O-D Valyl” for “5′-O-D Isoleucyl”, “of 3.0” for “of 2.7”, “rats (n=3).” for “rats (n=2).”, “and ara” for “and Ara”
as §1, with “9” for “6”, “5′-O-Glycyl” for “5′-O-D Isoleucyl”, “3.0” for “2.7”

[3] = tested on: KB cell; assay: KB cell cytotoxicity; conditions: read-out: KB cell cytotoxicity (IC50)
[4] = target: T1, HPEPT1 (Homo sapiens, UniProt P46059); assay: Inhibition of radiolabelled Gly-Sar uptake in DC5 cells overexpressing HPEPT1; type: cell-based; set-up: expressed in transfected cells; host or cells: HeLa cells overexpressing hPEPT1 (called 'HPEPT1 infected cells'); conditions: inhibition of Gly-Sar uptake, DC5 cells overexpressing HPEPT1, 10 min, 37° C.; read-out: DC5 IC50
T1 sequence (P46059 1-708): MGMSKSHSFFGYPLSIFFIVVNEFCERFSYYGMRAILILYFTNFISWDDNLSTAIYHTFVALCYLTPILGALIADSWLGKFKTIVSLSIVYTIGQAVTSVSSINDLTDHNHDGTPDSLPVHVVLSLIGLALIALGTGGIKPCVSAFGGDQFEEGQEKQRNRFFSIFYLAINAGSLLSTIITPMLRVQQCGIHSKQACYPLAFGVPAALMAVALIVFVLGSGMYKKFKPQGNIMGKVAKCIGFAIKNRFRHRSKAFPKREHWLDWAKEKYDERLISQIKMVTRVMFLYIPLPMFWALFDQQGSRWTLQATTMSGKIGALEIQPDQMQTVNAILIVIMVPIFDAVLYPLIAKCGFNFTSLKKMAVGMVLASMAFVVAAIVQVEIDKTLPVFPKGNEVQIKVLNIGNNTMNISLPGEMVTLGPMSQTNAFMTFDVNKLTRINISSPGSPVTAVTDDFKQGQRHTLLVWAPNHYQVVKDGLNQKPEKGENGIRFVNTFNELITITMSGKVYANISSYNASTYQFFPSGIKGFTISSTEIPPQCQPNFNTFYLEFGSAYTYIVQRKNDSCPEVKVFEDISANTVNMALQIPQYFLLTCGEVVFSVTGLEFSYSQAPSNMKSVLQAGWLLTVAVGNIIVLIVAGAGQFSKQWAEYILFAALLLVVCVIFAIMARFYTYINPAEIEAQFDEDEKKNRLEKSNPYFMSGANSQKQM
Experimental: Amino acid prodrugs are tested for their interaction with the dipeptide transporter, HPEPT1, using tissue culture cells that are engineered to overexpress HPEPT1. In this example, the cells that overexpress HPEPT1, termed DC5, are a human meduloblastoma cell line that is stably transfected with a eukaryotic expression vector encoding HPEPT1. […] DC5 cells are plated at a density of 12,000 cells/well in 96-well tissue culture plates and allowed to grow for 2 days. The cells are washed once with 200 microliters of uptake buffer and aspirated. The plates are cooled to 4° C. and 25 ul of uptake buffer containing 125 nanomoles Gly-Sar (at a specific activity of 1 microcurie/micromole) is added. The uptake buffer also contains the prodrugs to be tested at concentrations ranging from 10 micromolar to 20 millimolar. The assay is initiated by placing the plate in a shaking water bath at 37° C. and is terminated after 10 min by rapid washing with multiple changes of 4° C. phosphate buffered saline (PBS). The radioactive Gly-Sar peptide that is transported by the hpept1 is extracted from the cell layer with 200 ul of a one to one mixture of methanol and water and is counted in 4 ml of CytoScint ES™ scintillation cocktail (ICN). The data are plotted as % Gly-Sar uptake of control (no competitive substrate) versus the competitive substrate concentration. […] Typically, values that are below 10 mM indicate that the drug interacts with transporter.

[5] = target: T1, HPEPT1; conditions: for Uptake (hPepT1): HeLa cells overexpressing HPEPT1, 50 micromolar, pH 6.0, 45 minutes; for hPepT1/Control: ratio of uptake in hPepT1 cells versus control cells
[6] = target: T2, biphenyl hydrolase-like enzyme (BPHL) (Homo sapiens, UniProt Q86WA6); type: biochemical
T2 sequence (Q86WA6 38-291): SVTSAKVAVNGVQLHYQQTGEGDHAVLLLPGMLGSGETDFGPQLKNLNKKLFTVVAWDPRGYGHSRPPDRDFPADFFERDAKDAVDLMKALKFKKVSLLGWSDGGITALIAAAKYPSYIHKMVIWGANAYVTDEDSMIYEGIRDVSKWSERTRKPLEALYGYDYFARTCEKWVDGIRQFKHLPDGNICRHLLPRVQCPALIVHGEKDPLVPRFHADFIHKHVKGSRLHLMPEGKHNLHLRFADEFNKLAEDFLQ

[7] = target: T3, human dipeptide transporter, hPept1 (Homo sapiens, UniProt P46059)
T3 sequence (P46059 1-708): T1 sequence (P46059 1-708)

In the case of `NCC(=O)OC[C@H]1O[C@@H](n2cnc3c(N)ncnc32)[C@@H](O)[C@@H]1O` [5′-O-glycyl Ara A], the IC50 [1] is reported as 15 µM, the “plasma Ara A levels after dosing (in words)” value (“plasma Ara A levels” for short) [2] is reported as “relatively low plasma levels” and the “prodrug absorption / prodrug concentrations in systemic plasma (in words)” value [2] is reported as “limited intestinal absorption of the prodrug”. The IC50 [3] was greater than 100 µM.
For `CC(C)[C@H](N)C(=O)OC[C@H]1O[C@@H](n2cc(F)c(=O)[nH]c2=O)C[C@@H]1O` [5′-O-valyl-Floxuridine], the IC50 [4] was 1.17 mM, the “Uptake (hPepT1)” value [5] was 3.42 ± 0.09 nmole/mg/45 min and the hPepT1/Control [5] was 19.24. For the same compound, the “% of Control (VACV)” value [6] was 91.1%.
For `CC(C)C(N)C(=O)OC[C@H]1O[C@@H](n2cc(F)c(=O)[nH]c2=O)C[C@@H]1OC(=O)C(N)C(C)C` (stereo partly shown) [3′,5′-di-O-valyl-Floxuridine], the IC50 [4] was 1.6 mM, the “Uptake (hPepT1)” value [5] was 2.78 ± 0.37 nmole/mg/45 min and the hPepT1/Control [5] was 5.18. For the same compound, the “% of Control (VACV)” value [6] was 1.7%.
For `NC(CC(=O)O)C(=O)OCC1OC(n2cc(F)c(=O)[nH]c2=O)CC1OC(=O)C(N)CC(=O)O` (stereo not shown) [3′,5′-di-O-aspartyl-Floxuridine], the IC50 [4] was 9.55 mM and the “% of Control (VACV)” value [6] was 0.0%.
`Nc1ncnc2c1ncn2[C@@H]1O[C@H](COC(=O)[C@@H](N)CC(=O)O)[C@@H](O)[C@@H]1O` [5′-O-L-aspartyl Ara A] gave an IC50 [1] of 7 µM, a hPepT1/Control [7] of 1.27 and a HeLa/hPEPT1 uptake ([7]; pH 6) of 5.0 ± 0.2. For the same compound, the IC50 [3] was 60 µM.
`C[C@H](N)C(=O)NCC(=O)OC[C@H]1O[C@@H](n2cnc3c(N)ncnc32)[C@@H](O)[C@@H]1O` [5′-O-L-alagly Ara A] showed a hPepT1/Control [7] of 1.48.
In the case of `N[C@@H](Cc1ccccc1)C(=O)OC[C@H]1O[C@@H](n2cc(F)c(=O)[nH]c2=O)C[C@@H]1O` [5′-O-phenylalanyl-Floxuridine], the IC50 [4] is reported as 3.7 mM, the “Uptake (hPepT1)” value [5] is reported as 1.58 ± 0.20 nmole/mg/45 min and the hPepT1/Control [5] is reported as 12.34. For the same compound, the “% of Control (VACV)” value [6] was 52.8%.
For `CC(C)[C@@H](N)C(=O)OC[C@H]1O[C@@H](n2cnc3c(N)ncnc32)[C@@H](O)[C@@H]1O` [5′-O-D-valyl Ara A], the IC50 [1] was 3.5 µM, the “AUC0-4 hr of Prodrug” value ([2]; rat plasma, duodenal injection of the named prodrug) was 637 ± 74 ng·h/mL and the “plasma Ara A levels” value [2] was “Increased levels of plasma Ara A”. For the same compound, the “prodrug absorption / prodrug concentrations in systemic plasma (in words)” value [2] was “extended and enhanced concentrations of the prodrug in systemic plasma” and the IC50 [3] was greater than 100 µM.
With `CC(C)[C@H](N)C(=O)O[C@H]1C[C@H](n2cc(F)c(=O)[nH]c2=O)O[C@@H]1CO` [3′-O-valyl-Floxuridine] the IC50 [4] was 0.98 mM, the “Uptake (hPepT1)” value [5] was 1.35 ± 0.13 nmole/mg/45 min and the hPepT1/Control [5] was 1.03. For the same compound, the “% of Control (VACV)” value [6] was 3.3%.
In the case of `NC(CC(=O)O)C(=O)OCC1OC(n2cc(F)c(=O)[nH]c2=O)CC1O` (stereo not shown) [5′-O-aspartyl-Floxuridine], the IC50 [4] is reported as 8.3 mM and the “% of Control (VACV)” value [6] is reported as 2.3%.
In the case of `OC[C@H]1O[C@@H](n2cnc3c2N=CNC[C@H]3O)C[C@@H]1O` [2′-deoxycoformycin, reference compound], the “effect on virus replication” value ([1]; 2′-deoxycoformycin alone at 1 micromolar) is reported as “no effect on virus replication”.
For `CC[C@@H](C)[C@@H](N)C(=O)OC[C@H]1O[C@@H](n2cnc3c(N)ncnc32)[C@@H](O)[C@@H]1O` [5′-O-D-isoleucyl Ara A], the IC50 [1] was 3 µM, the “plasma Ara A levels” value [2] was “increased levels of plasma Ara A” and the IC50 [3] was greater than 100 µM.
With `N[C@@H](Cc1ccccc1)C(=O)OC[C@H]1O[C@@H](n2cc(F)c(=O)[nH]c2=O)C[C@@H]1OC(=O)[C@@H](N)Cc1ccccc1` [3′,5′-di-O-phenylalanyl-Floxuridine] the IC50 [4] was 2.78 mM, the “Uptake (hPepT1)” value [5] was 2.96 ± 0.13 nmole/mg/45 min and the hPepT1/Control [5] was 9.53. For the same compound, the “% of Control (VACV)” value [6] was 8.9%.
With `NC(Cc1ccccc1)C(=O)O[C@H]1C[C@H](n2cc(F)c(=O)[nH]c2=O)O[C@@H]1CO` (stereo partly shown) [3′-O-phenylalanyl-Floxuridine] the IC50 [4] was 3.48 mM, the “Uptake (hPepT1)” value [5] was 0.83 ± 0.19 nmole/mg/45 min and the hPepT1/Control [5] was 2.56. The “% of Control (VACV)” value [6] was 24.4%.
